US20220257581A1, “Treatment of Cancer” (Sumitomo Dainippon Pharma Oncology, Inc., priority 2019, published 2022)

Key:
[1] = test system: patients with newly diagnosed, previously untreated AML; test: Kaplan-Meier time-to-event analyses and clinical outcomes of the Phase 1 study; type: in vivo, human
Excerpt: Statistical Analysis. […] Intra-patient dose escalation was not permitted. […] Database lock was on Apr. 30, 2020.

[2] = test system: patients with newly diagnosed, previously untreated AML; test: Phase 1 dose-escalation study of alvocidib followed by 7+3: response assessments (ELN Guidelines); type: in vivo, human; details: for Overall CR, n (%): Response Evaluable Population
Experimental: Methods: Study Population. This was a Phase 1, open-label, multicenter, dose-escalation study of alvocidib followed by cytarabine/daunorubicin (7+3) in patients with AML (NCT03298984). Patients aged 18-65 years with newly diagnosed, previously untreated AML and pathological confirmation of bone marrow (BM) blasts 20% were eligible. Key inclusion criteria included: Eastern Cooperative Oncology Group (ECOG) performance status (PS)≤2, serum creatinine level <1.8 mg/dL, alanine aminotransferase (ALT) and aspartate aminotransferase (AST)<5 times upper limit of normal (ULN), total bilirubin <2.0 mg/dL, and left ventricular ejection fraction (EF) >45%. Patients were excluded if they had previous treatment for AML (with the exception of hydroxyurea), and were diagnosed with acute promyelocytic leukemia (APL-M3) or core-binding factor AML ((CBF-AML: t(8;21); inv(16); t(16;16)). All patients provided written informed consent. This study was conducted as per the Declaration of Helsinki after approval by ethics committee of each participating center.
Treatment Plan: Induction.
Consolidation. Patients who achieved a complete remission (CR) received 2 to 4 cycles of consolidation therapy with high dose cytarabine (HiDAC) 3 gm/m^2 IV every 12 hours on days 1, 3 and 5 upon full hematological recovery (absolute neutrophil count ≥[…] and platelets >[…]). HiDAC was permitted to be dose reduced to 1.5 gm/m^2 IV every 12 hours on days 1, 3 and 5 in those >60 years. Allogeneic stem cell transplantation was permitted after induction per standard of care but was recommended after at least 1 cycle of HiDAC consolidation in those who achieved CR.
Response Assessments. Response assessment was performed by a bone marrow aspirate and biopsy at the time of full hematologic recovery or by day 50 and day 60 of 1 versus 2 induction cycles, respectively. Response to therapy was assessed by standardized ELN Guidelines. In those who achieved CR and received consolidation therapy, a bone marrow aspirate and biopsy was performed after cycle 2 of HiDAC, after completion of consolidation therapy, and at any suspicion of relapse.

[3] = test system: patients with newly diagnosed, previously untreated AML; test: Minimal residual disease (MRD) analysis of bone marrow by flow cytometry in the Phase 1 study; type: in vivo, human
Experimental: Minimal Residual Disease (MRD) Analysis. MRD was assessed in bone marrow samples at the time of response by a uniform central assay (Hematologics, Inc.) in an exploratory cohort, as has been previously described. Samples were first incubated with antibodies for 20 minutes at room temperature. Red blood cells were then lysed at 37° C. using buffered NH4Cl for 5 minutes, followed by centrifugation at 300 g. Cells were subsequently washed with PBS supplemented with 2% FCS and resuspended in 1% paraformaldehyde. Samples were analyzed on a FACSCalibur™ flow cytometer (Becton Dickinson Biosciences). 200,000 events were analyzed for each sample. Data analysis was performed with WinList™ software (Verity Software House). Two independent reviewers viewed each sample to arrive at a consensus on the data.

[4] = test system: patients with newly diagnosed, previously untreated AML
Experimental: Treatment Plan: Induction. Alvocidib was dose-escalated starting at dose level 1: 20 mg/m^2 30-minute IV bolus followed by 30 mg/m^2 IV infusion over 4 hours on Days 1-3 (FIG. 1). Daunorubicin 60 mg/m^2 IV bolus over 15 minutes was initiated on days 5-7, and cytarabine 100 mg/m^2/day IV continuous 24-hour infusion was administered on Days 5-11. A bone marrow aspirate and biopsy was performed on day 14 (+/−3 days) and patients with residual leukemia (>5% bone marrow blasts and >10% cellularity) were recommended to receive a second induction cycle with alvocidib on days 1-3 (same dose level as induction) followed by daunorubicin 45 mg/m^2/day IV over 15 minutes on days 5 and 6 and cytarabine 100 mg/m^2/day IV continuous infusion over days 5-9 (“5+2”).
Statistical Analysis. Alvocidib dose was escalated using a 3+3 design (FIG. 1). Successive cohorts of patients (3-6 per cohort) were treated with escalated doses until the maximal tolerated dose (MTD) was established. Intra-patient dose escalation was not permitted. Descriptive analysis was performed for the safety and efficacy endpoints. MTD for alvocidib was estimated by the highest alvocidib dose for which the incidence of DLT during Cycle 1 was less than 33% in combination with 7+3. Kaplan-Meier time-to-event analyses were performed on overall survival (OS), relapse-free survival and duration of remission. […]

MDS blasts = test: MCL-1 dependency assay of MDS blasts after azacitidine pre-treatment; type: cell-based, human; details: MCL-1 dependency cut-off of 40%
Experimental: CD13, CD33, CD34, CD45, CD3 and CD20 were used as markers to identify MDS blasts, and to perform MCL-1 dependency analyses. MDS blasts were positive for CD13, CD33 and CD34, dim for CD45 and negative for CD3 and CD20.
On day 1 of the MCL-1 dependency assay, 5×10^4-1×10^5 HS-5 feeder cells were plated into a 6-well plate, and allowed to attached overnight. HS-5 feeder cells improve viability of frozen MDS bone marrow mononuclear cells (BMMCs) after thawing. On day 2 of the assay, MDS BMMCs were thawed, and divided into three treatment groups corresponding to treatment with DMSO, treatment with 1 μM azacitidine or treatment with 2.5 μM azacitidine. On day 4, after a 48-hour treatment period, MCL-1 dependency of MDS blasts, lymphocytes and monocytes were separately assessed.

[5] = Response Evaluable Population (N = 31), alvocidib followed by 7+3

CN1CC[C@H](c2c(O)cc(O)c3c(=O)cc(-c4ccccc4Cl)oc23)[C@H](O)C1 [alvocidib, 2-(2-chlorophenyl)-5,7-dihydroxy-8-[(3S,4R)-3-hydroxy-1-methylpiperidin-4-yl]chromen-4-one]
median duration of CR ([1]; 7 relapsed CR patients, range: 1.4-13.6 months): 8.6 months
Median EFS ([1]; 32 patients, 95% CI: 2.0, NA): 10.0 months
Landmark 1-year OS ([1]; 32 patients, 95% CI: 41.9, 77.4%): 62.4%
median OS ([1]; 32 patients, median follow-up 9.2 months): not reached
Landmark 2-year EFS ([1]; 95% CI: 15.4, 53.8%): 34.1%
Landmark 1-year EFS ([1]; 95% CI: 21.9, 59.1%): 40.9%
Landmark 1-year RFS ([1]; 95% CI: 31.7, 79.1%): 59.5%
relapsed to date ([1]; of the 22 CR patients): 32%
remain in CR ([1]; patients who achieved CR without MRD): 82%
relapsed ([1]; patients who achieved CR without evidence of MRD): 18%
median RFS ([1]; time from CR/CRi up to relapse or death): not reached
patients achieving CR after re-induction therapy ([2]; 3 patients re-induced with alvocidib and 5+2): None
CR rate ([2]; AML with mutated chromatin, RNA-splicing genes, or both (9/10)): 90%
patients achieving CR ([2]; MRD exploratory cohort of 12 patients at recommended phase 2 dose): 75%
CR, n (%) [2, 5]: 22 (71.0%) n (%)
CRi (%) [2, 5]: 0%
Overall CR/CRi, n (%) [2, 5]: 22 (71.0%) n (%)
Overall Response Rate (CR + CRi + PR) [2, 5]: 24 (77.4%) n (%)
PR, n (%) [2, 5]: 2 (6.5%) n (%)
Overall CR, n (%) ([2]; ELN-risk Adverse (n = 15)): 9 (60.0%) n (%)
Overall CR, n (%) ([2]; ELN-risk Favorable (n = 9)): 8 (88.9%) n (%)
Overall CR, n (%) ([2]; ELN-risk Intermediate (n = 7)): 5 (71.4%) n (%)
Overall CR, n (%) ([2]; SWOG cytogenetics risk Favorable (n = 0)): 0 (0.0%) n (%)
Overall CR, n (%) ([2]; SWOG cytogenetics risk Intermediate (n = 19)): 15 (78.9%) n (%)
Overall CR, n (%) ([2]; SWOG cytogenetics risk Unfavorable (n = 12)): 7 (58.3%) n (%)
Overall CR, n (%) ([2]; SWOG cytogenetics risk Unknown (n = 0)): 0 (0.0%) n (%)
Overall CR, n (%) ([2]; subgroup AML with MRC (n = 11)): 6 (54.5%) n (%)
Overall CR, n (%) ([2]; subgroup Age <60 years (n = 21)): 16 (76.2%) n (%)
Overall CR, n (%) ([2]; subgroup Age ≥60 years (n = 10)): 6 (60.0%) n (%)
Overall CR, n (%) ([2]; subgroup At MTD (n = 23)): 15 (65.2%) n (%)
Overall CR, n (%) ([2]; subgroup Secondary AML (n = 5)): 3 (60.0%) n (%)
patients with no evidence of residual leukemia on day 14 assessment ([2]; all enrolled patients): 91%
CR rate ([2]; all enrolled patients (n=32)): 69%
overall response rate (ORR: CR+partial remission (PR)) ([2]; all enrolled patients (n=32)): 75%
Overall CR rate ([2]; all enrolled, ELN adverse-risk (9 of 16)): 56%
Overall CR rate ([2]; all enrolled, ELN favorable-risk (8 of 9)): 89%
Overall CR rate ([2]; all enrolled, ELN intermediate-risk (5 of 7)): 71%
CR rate ([2]; dose level 1 (3 of 3), all ELN favorable-risk): 100%
CR rate ([2]; genomic signature specific for secondary AML (ASXL1, BCOR, EZH2, SF3B1, SRSF2, STAG2, U2AF1, or ZRSR2) (11/12)): 92%
Overall CR rate ([2]; patients with ASXL1 mutations (5/6)): 83%
CR rate ([2]; patients with MCL-1 scores greater than 30% (10/12)): 83%
CR rate ([2]; patients with MCL-1 scores less than 30% (10/15)): 67%
CR rate ([2]; patients with NPM1 mutations (8/10)): 80%
Overall CR rate ([2]; patients with RUNX1 mutations (4/5)): 80%
patients achieving CR ([2]; patients with a TP53 mutation (1/3)): 33%
patients achieving CR ([2]; recommended phase 2 dose level (15/23)): 65%
CR rate ([2]; response-evaluable patients): 71%
ORR ([2]; response-evaluable patients): 77%
MRD-negative among patients who achieved CR ([3]; 22 CR patients, standardized flow cytometry and/or institutional standard assessment): 50%
MRD-negative among patients who achieved CR ([3]; ELN adverse-risk disease (4/9)): 44%
MRD-negative CR, overall ([3]; MRD exploratory cohort, 8 of 12 patients): 67%
MRD-negative among CR patients ([3]; MRD exploratory cohort, centralized flow cytometry (8/9)): 89%
MRD-negative CR ([3]; MRD exploratory cohort, ELN adverse-risk patients (3 out of 4)): 75%
CR with evidence of MRD ([3]; MRD exploratory cohort, one patient with adverse-risk disease): 11%
MTD (maximum tolerated dose) of alvocidib ([4]; IV bolus/IV infusion on Days 1-3, in combination with 7+3): (30/60 mg/m^2)
safety and feasibility ([4]; in vivo): safe, feasible

Nc1ncn([C@@H]2O[C@H](CO)[C@@H](O)[C@H]2O)c(=O)n1 [azacitidine]
patient samples with an increase in MCL-1 dependency (MDS blasts; 1 μM or 2.5 μM azacitidine, 48-hour treatment): 10/12
effect on MCL-1 dependency status of blasts (MDS blasts; patient sample MDS1060): rendered MCL-1-independent blasts MCL-1 dependent
